How the values were obtained:
CaV1.3 LTCCs [1] = biological target: T1, CaV1.3 LTCCs (Rattus norvegicus, UniProt P27732); test: FLIPR Fluo-8 calcium influx assay, HEK293 cells stably expressing CaV1.3; assay type: cell-based; conditions: for binding to CaV1.3 LTCCs (in words): bulky bicyclic ring analogues; for binding affinity for CaV1.3 LTCCs (in words): even at 100 µM; for Selectivity, ratio of the IC50 values (CaV1.2/CaV1.3): CaV1.3 over CaV1.2
CaV1.2 LTCCs = CaV1.2 LTCCs (Oryctolagus cuniculus, UniProt P15381); test: FLIPR Fluo-8 calcium influx assay, HEK293 cells stably expressing CaV1.2; assay type: cell-based, rabbit; conditions: for binding to CaV1.2 LTCCs (in words): bulky bicyclic ring analogues; for binding affinity for CaV1.2 LTCCs (in words): even at 100 µM
Chain of CaV1.2 LTCCs (P15381 whole entry): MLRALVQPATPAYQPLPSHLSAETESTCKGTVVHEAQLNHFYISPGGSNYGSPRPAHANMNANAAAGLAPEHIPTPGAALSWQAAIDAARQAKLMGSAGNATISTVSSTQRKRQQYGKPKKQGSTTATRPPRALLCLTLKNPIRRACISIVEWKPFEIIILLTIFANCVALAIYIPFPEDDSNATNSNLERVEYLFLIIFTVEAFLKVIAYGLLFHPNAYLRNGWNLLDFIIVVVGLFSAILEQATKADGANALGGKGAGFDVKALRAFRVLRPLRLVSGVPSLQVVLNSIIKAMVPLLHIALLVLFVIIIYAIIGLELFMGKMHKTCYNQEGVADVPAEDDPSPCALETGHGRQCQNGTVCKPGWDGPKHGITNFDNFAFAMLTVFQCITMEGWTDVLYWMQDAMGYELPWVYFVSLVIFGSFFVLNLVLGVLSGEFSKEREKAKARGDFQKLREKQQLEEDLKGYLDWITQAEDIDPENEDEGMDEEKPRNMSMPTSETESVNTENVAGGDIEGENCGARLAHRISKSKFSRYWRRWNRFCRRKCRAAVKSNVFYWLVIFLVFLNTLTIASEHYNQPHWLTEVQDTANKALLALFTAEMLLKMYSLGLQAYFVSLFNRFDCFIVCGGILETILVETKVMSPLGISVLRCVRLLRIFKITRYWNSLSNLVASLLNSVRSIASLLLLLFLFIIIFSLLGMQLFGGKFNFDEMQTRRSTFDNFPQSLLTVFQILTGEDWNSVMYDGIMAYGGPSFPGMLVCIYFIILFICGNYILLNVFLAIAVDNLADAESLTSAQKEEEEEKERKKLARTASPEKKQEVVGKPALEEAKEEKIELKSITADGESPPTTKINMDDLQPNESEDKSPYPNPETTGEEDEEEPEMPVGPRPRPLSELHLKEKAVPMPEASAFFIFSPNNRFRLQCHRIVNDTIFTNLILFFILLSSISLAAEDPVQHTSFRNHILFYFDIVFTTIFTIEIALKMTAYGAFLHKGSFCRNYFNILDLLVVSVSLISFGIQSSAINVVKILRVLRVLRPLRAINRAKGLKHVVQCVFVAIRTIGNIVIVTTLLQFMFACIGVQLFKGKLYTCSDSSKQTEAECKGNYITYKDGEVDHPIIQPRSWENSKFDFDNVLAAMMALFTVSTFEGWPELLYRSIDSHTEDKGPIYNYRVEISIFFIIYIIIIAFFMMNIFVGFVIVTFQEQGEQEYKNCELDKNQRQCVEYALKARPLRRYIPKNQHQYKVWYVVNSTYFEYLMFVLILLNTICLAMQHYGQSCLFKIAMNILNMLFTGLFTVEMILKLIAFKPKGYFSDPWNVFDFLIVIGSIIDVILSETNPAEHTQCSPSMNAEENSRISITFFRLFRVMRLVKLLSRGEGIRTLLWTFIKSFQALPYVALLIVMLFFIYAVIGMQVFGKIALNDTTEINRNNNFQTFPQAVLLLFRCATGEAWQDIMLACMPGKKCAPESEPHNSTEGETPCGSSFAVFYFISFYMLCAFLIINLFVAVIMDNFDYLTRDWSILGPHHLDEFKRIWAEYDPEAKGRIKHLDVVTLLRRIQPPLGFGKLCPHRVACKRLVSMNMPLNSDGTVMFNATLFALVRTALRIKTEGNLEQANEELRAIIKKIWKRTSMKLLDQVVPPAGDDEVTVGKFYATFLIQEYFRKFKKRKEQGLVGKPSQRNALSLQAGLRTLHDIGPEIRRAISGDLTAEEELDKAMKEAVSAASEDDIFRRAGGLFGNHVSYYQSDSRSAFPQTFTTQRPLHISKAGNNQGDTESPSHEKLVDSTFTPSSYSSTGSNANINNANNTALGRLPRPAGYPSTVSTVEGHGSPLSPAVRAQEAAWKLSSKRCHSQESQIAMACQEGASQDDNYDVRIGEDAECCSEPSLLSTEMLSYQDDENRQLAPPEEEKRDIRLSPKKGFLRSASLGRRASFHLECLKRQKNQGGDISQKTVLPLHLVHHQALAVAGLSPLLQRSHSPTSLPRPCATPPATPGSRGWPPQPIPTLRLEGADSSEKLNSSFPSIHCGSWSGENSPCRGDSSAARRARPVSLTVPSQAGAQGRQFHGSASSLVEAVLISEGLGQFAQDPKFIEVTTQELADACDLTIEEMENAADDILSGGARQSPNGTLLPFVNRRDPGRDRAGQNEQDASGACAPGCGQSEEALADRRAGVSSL
Chain of CaV1.2 LTCCs (P54287 whole entry partner): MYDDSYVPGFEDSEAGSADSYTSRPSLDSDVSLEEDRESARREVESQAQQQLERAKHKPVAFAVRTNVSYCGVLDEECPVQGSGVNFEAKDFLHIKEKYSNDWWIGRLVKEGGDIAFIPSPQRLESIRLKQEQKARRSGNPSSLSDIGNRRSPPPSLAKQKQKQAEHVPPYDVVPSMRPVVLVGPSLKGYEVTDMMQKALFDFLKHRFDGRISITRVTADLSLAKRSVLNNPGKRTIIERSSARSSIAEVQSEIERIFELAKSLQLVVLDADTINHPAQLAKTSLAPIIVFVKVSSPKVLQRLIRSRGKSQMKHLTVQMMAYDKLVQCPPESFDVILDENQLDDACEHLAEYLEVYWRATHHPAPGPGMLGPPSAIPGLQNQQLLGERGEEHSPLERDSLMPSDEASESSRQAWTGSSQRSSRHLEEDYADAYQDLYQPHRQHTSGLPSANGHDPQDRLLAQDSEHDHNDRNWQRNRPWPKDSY
Chain of CaV1.2 LTCCs (P54290 25-944 partner): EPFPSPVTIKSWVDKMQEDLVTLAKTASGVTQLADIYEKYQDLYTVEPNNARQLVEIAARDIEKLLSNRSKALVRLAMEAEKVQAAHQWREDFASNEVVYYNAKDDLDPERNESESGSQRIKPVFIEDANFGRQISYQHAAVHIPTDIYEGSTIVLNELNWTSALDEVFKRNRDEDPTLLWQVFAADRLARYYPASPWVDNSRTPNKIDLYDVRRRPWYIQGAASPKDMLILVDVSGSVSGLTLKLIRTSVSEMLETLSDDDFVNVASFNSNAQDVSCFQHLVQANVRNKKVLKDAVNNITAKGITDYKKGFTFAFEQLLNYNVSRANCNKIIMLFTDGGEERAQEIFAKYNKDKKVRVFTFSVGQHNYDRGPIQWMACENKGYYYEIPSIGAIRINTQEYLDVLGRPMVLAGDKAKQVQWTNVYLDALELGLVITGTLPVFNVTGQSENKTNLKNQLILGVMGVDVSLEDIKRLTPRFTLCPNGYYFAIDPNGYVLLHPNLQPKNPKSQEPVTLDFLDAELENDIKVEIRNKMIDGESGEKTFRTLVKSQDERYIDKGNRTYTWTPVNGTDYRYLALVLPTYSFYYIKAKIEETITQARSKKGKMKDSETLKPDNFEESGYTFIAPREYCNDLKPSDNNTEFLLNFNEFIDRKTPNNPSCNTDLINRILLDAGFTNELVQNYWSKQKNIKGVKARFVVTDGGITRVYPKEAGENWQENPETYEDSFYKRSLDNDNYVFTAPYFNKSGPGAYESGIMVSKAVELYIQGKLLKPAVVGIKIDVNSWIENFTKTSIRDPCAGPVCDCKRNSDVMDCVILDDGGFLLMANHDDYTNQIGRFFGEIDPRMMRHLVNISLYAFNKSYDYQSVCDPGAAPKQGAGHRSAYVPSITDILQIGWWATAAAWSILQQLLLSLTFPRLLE
Chain of CaV1.2 LTCCs (P54290 945-1091 partner): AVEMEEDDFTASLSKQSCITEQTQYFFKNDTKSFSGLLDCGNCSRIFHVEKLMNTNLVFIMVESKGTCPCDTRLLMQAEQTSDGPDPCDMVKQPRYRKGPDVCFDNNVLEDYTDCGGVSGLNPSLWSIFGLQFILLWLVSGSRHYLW

CaV1.3 LTCCs [2] = biological target: T1, CaV1.3 LTCCs; conditions: more potent than 6; ref previous study; cited from earlier work

In the case of `CC1(C)[C@@H]2CC[C@@]1(C)[C@@H](N1C(=O)CC(=O)N(CCc3ccc(Cl)cc3)C1=O)C2` [Compound 54], the “binding to CaV1.3 LTCCs (in words)” value (CaV1.3 LTCCs [1]) is reported as “almost no binding” and the “binding to CaV1.2 LTCCs (in words)” value (CaV1.2 LTCCs) is reported as “almost no binding”.

With `CC1(C)[C@@H]2CC[C@H](CN3C(=O)CC(=O)N(CCc4cccc(Cl)c4)C3=O)[C@H]1C2` [Compound 55] the “binding to CaV1.3 LTCCs (in words)” value (CaV1.3 LTCCs [1]) was “almost no binding” and the “binding to CaV1.2 LTCCs (in words)” value (CaV1.2 LTCCs) was “almost no binding”.

For `CC1(C)[C@@H]2CC[C@H](CN3C(=O)CC(=O)N(CCc4ccc(Cl)cc4)C3=O)[C@H]1C2` [Compound 56], the “binding to CaV1.3 LTCCs (in words)” value (CaV1.3 LTCCs [1]) was “almost no binding” and the “binding to CaV1.2 LTCCs (in words)” value (CaV1.2 LTCCs) was “almost no binding”.

For `CC1(C)[C@@H]2CC[C@@]1(C)[C@@H](N1C(=O)CC(=O)N(CCc3cccc(Cl)c3)C1=O)C2` [Compound 53], the “binding to CaV1.3 LTCCs (in words)” value (CaV1.3 LTCCs [1]) was “almost no binding” and the “binding to CaV1.2 LTCCs (in words)” value (CaV1.2 LTCCs) was “almost no binding”.

With `O=C(O)[C@H]1CC[C@@H](N2C(=O)CC(=O)N(CCc3cccc(Cl)c3)C2=O)C1` [Compound 67] the “binding affinity for CaV1.3 LTCCs (in words)” value (CaV1.3 LTCCs [1]) was “no binding affinity” and the “binding affinity for CaV1.2 LTCCs (in words)” value (CaV1.2 LTCCs) was “no binding affinity”.

With `C[C@H](C1CCCCC1)N1C(=O)CC(=O)N(CCc2ccc(Cl)cc2)C1=O` [Compound 46, (R)-1-(4-Chlorophenethyl)-3-(1-cyclohexylethyl)pyrimidine-2,4,6(1H,3H,5H)-trione] the “Selectivity, ratio of the IC50 values (CaV1.2/CaV1.3)” value (shortened to “Selectivity, ratio of the IC50 values”) (CaV1.3 LTCCs [1]) was greater than 12.

In the case of `O=C1CC(=O)N([C@H]2C[C@H]3CC[C@@H]2C3)C(=O)N1CCc1cccc(Cl)c1` [Compound 49, 1-((1R,2S,4S)-Bicyclo[2.2.1]heptan-2-yl)-3-(3-chlorophenethyl)pyrimidine-2,4,6(1H,3H,5H)-trione], the “Selectivity, ratio of the IC50 values” value (CaV1.3 LTCCs [1]) is reported as greater than 29.

In the case of `O=C1CC(=O)N([C@H]2CCC[C@@H]2O)C(=O)N1CCc1cccc(Cl)c1` [Compound 69], the “binding affinity for CaV1.3 LTCCs (in words)” value (CaV1.3 LTCCs [1]) is reported as “no binding affinity” and the “binding affinity for CaV1.2 LTCCs (in words)” value (CaV1.2 LTCCs) is reported as “no binding affinity”.

In the case of `O=C1CC(=O)N([C@H]2CCNC2)C(=O)N1CCc1cccc(Cl)c1` [Compound 65], the “binding affinity for CaV1.3 LTCCs (in words)” value (CaV1.3 LTCCs [1]) is reported as “no binding affinity” and the “binding affinity for CaV1.2 LTCCs (in words)” value (CaV1.2 LTCCs) is reported as “no binding affinity”.

For `O=C1CC(=O)N(C2CC3CCC2C3)C(=O)N1CCc1ccc(Cl)cc1` (mixture of isomers) [Compound 7, N-(4-chlorophenethyl)-N′-(±)-endo-norbornylpyrimidine-2,4,6-(1H,3H,5H)-trione], the “potency toward CaV1.3 LTCC relative to 6” value (CaV1.3 LTCCs [2]) is listed as 3 fold.

For `C[C@@H](C1CCCCC1)N1C(=O)CC(=O)N(CCc2ccc(Cl)cc2)C1=O` [Compound 44, (S)-1-(4-Chlorophenethyl)-3-(1-cyclohexylethyl)pyrimidine-2,4,6(1H,3H,5H)-trione], the “Selectivity, ratio of the IC50 values” value (CaV1.3 LTCCs [1]) was greater than 12.

From PMC4595045 (Journal of medicinal chemistry, 2013)
